Experimental data: the supplement of paper PMC13380429

How the values were obtained:
Details in all cases: 72 h
U2OS [1] = assay: drug sensitivity score (DSS) for viability; higher = more toxic; extreme values may be limits of the assay
HepG2 [2] = assay: as above
Caco-2 [3] = assay: as above
Vero E6 [4] = assay: as above
Calu-3 [5] = assay: as above
U2OS [6] = assay: cell viability relative to DMSO; higher = less toxic
HepG2 [7] = assay: as above
Caco-2 [8] = assay: as above
Vero E6 [9] = assay: as above
Calu-3 [10] = assay: as above
U2OS [11] = assay: relative viability EC50 (midpoint between 100% and the lowest measured viability); higher = less toxic
HepG2 [12] = assay: as above
Caco-2 [13] = assay: as above
Vero E6 [14] = assay: as above
Calu-3 [15] = assay: as above

Compound: COc1ccsc1CNCC[C@@]1(c2ccccn2)CCOC2(CCCC2)C1 [TRV130]
- drug sensitivity score (U2OS [1]): 0
- drug sensitivity score (HepG2 [2]): 0
- drug sensitivity score (Caco-2 [3]): 0
- drug sensitivity score (Vero E6 [4]): 0
- drug sensitivity score (Calu-3 [5]): 0
- cell viability (U2OS [6]; 1 nM): 103%
- cell viability (U2OS [6]; 10 nM): 102%
- cell viability (U2OS [6]; 100 nM): 102%
- cell viability (U2OS [6]; 1000 nM): 96.9%
- cell viability (U2OS [6]; 10000 nM): 100%
- cell viability (HepG2 [7]; 1 nM): 105%
- cell viability (HepG2 [7]; 10 nM): 95.6%
- cell viability (HepG2 [7]; 100 nM): 91.9%
- cell viability (HepG2 [7]; 1000 nM): 102%
- cell viability (HepG2 [7]; 10000 nM): 94.9%
- cell viability (Caco-2 [8]; 1 nM): 105%
- cell viability (Caco-2 [8]; 10 nM): 104%
- cell viability (Caco-2 [8]; 100 nM): 101%
- cell viability (Caco-2 [8]; 1000 nM): 93%
- cell viability (Caco-2 [8]; 10000 nM): 97.6%
- cell viability (Vero E6 [9]; 1 nM): 96.9%
- cell viability (Vero E6 [9]; 10 nM): 100%
- cell viability (Vero E6 [9]; 100 nM): 95.7%
- cell viability (Vero E6 [9]; 1000 nM): 94.5%
- cell viability (Vero E6 [9]; 10000 nM): 96.6%
- cell viability (Calu-3 [10]; 1 nM): 103%
- cell viability (Calu-3 [10]; 10 nM): 96.9%
- cell viability (Calu-3 [10]; 100 nM): 101%
- cell viability (Calu-3 [10]; 1000 nM): 112%
- cell viability (Calu-3 [10]; 10000 nM): 104%
- relative viability EC50 (U2OS [11]): > 10 µM
- relative viability EC50 (HepG2 [12]): > 10 µM
- relative viability EC50 (Caco-2 [13]): > 10 µM
- relative viability EC50 (Vero E6 [14]): > 10 µM
- relative viability EC50 (Calu-3 [15]): > 10 µM

Compound: CCCCNc1ncc2c(-c3ccc(CN4CCN(C)CC4)cc3)cn([C@H]3CC[C@H](O)CC3)c2n1 [UNC2025]
- drug sensitivity score (U2OS [1]): 10.5
- drug sensitivity score (HepG2 [2]): 10.5
- drug sensitivity score (Caco-2 [3]): 4.3
- drug sensitivity score (Vero E6 [4]): 7.2
- drug sensitivity score (Calu-3 [5]): 5.7
- cell viability (U2OS [6]; 1 nM): 98.4%
- cell viability (U2OS [6]; 10 nM): 103%
- cell viability (U2OS [6]; 100 nM): 97%
- cell viability (U2OS [6]; 1000 nM): 60.3%
- cell viability (U2OS [6]; 10000 nM): 0.3%
- cell viability (HepG2 [7]; 1 nM): 88.6%
- cell viability (HepG2 [7]; 10 nM): 94%
- cell viability (HepG2 [7]; 100 nM): 92%
- cell viability (HepG2 [7]; 1000 nM): 54.7%
- cell viability (HepG2 [7]; 10000 nM): 5.2%
- cell viability (Caco-2 [8]; 1 nM): 88.5%
- cell viability (Caco-2 [8]; 10 nM): 103%
- cell viability (Caco-2 [8]; 100 nM): 97.3%
- cell viability (Caco-2 [8]; 1000 nM): 95.5%
- cell viability (Caco-2 [8]; 10000 nM): 33.6%
- cell viability (Vero E6 [9]; 1 nM): 95.3%
- cell viability (Vero E6 [9]; 10 nM): 101%
- cell viability (Vero E6 [9]; 100 nM): 100%
- cell viability (Vero E6 [9]; 1000 nM): 73.3%
- cell viability (Vero E6 [9]; 10000 nM): 34.6%
- cell viability (Calu-3 [10]; 1 nM): 98.5%
- cell viability (Calu-3 [10]; 10 nM): 99.7%
- cell viability (Calu-3 [10]; 100 nM): 100%
- cell viability (Calu-3 [10]; 1000 nM): 87.1%
- cell viability (Calu-3 [10]; 10000 nM): 34.2%
- relative viability EC50 (U2OS [11]): 1.21 µM
- relative viability EC50 (HepG2 [12]): 1.02 µM
- relative viability EC50 (Caco-2 [13]): 2.62 µM
- relative viability EC50 (Vero E6 [14]): 1.16 µM
- relative viability EC50 (Calu-3 [15]): 1.75 µM

Compound: O=C(NCC(=O)N1CCCCC1)Nc1ccc2nnsc2c1 [UNC2327]
- drug sensitivity score (U2OS [1]): 0
- drug sensitivity score (HepG2 [2]): 0
- drug sensitivity score (Caco-2 [3]): 0
- drug sensitivity score (Vero E6 [4]): 0
- drug sensitivity score (Calu-3 [5]): 0
- cell viability (U2OS [6]; 1 nM): 99.9%
- cell viability (U2OS [6]; 10 nM): 106%
- cell viability (U2OS [6]; 100 nM): 96.3%
- cell viability (U2OS [6]; 1000 nM): 99.1%
- cell viability (U2OS [6]; 10000 nM): 99.8%
- cell viability (HepG2 [7]; 1 nM): 87.1%
- cell viability (HepG2 [7]; 10 nM): 93.7%
- cell viability (HepG2 [7]; 100 nM): 103%
- cell viability (HepG2 [7]; 1000 nM): 99.7%
- cell viability (HepG2 [7]; 10000 nM): 98.1%
- cell viability (Caco-2 [8]; 1 nM): 95.3%
- cell viability (Caco-2 [8]; 10 nM): 102%
- cell viability (Caco-2 [8]; 100 nM): 95.4%
- cell viability (Caco-2 [8]; 1000 nM): 105%
- cell viability (Caco-2 [8]; 10000 nM): 95.4%
- cell viability (Vero E6 [9]; 1 nM): 97.5%
- cell viability (Vero E6 [9]; 10 nM): 103%
- cell viability (Vero E6 [9]; 100 nM): 98.7%
- cell viability (Vero E6 [9]; 1000 nM): 101%
- cell viability (Vero E6 [9]; 10000 nM): 104%
- cell viability (Calu-3 [10]; 1 nM): 95%
- cell viability (Calu-3 [10]; 10 nM): 97.5%
- cell viability (Calu-3 [10]; 100 nM): 90.8%
- cell viability (Calu-3 [10]; 1000 nM): 103%
- cell viability (Calu-3 [10]; 10000 nM): 99.3%
- relative viability EC50 (U2OS [11]): > 10 µM
- relative viability EC50 (HepG2 [12]): > 10 µM
- relative viability EC50 (Caco-2 [13]): > 10 µM
- relative viability EC50 (Vero E6 [14]): > 10 µM
- relative viability EC50 (Calu-3 [15]): > 10 µM
